Here are results for 20 molecules from patent publication US10710984B2, “N-[(Pyrimidinylamino)propanyl]-and N-[(Pyridinylamino)-propanyl]arylcarboxamides” (Boehringer Ingelheim International GmbH, priority 2016, dated 2020).

One data set concerns the target T1, human orexin 2 receptor (Homo sapiens, UniProt O43614).
T1 construct: CHO-K1 cells stably expressing the full-length human orexin 2 receptor and the aequorin photoprotein; expressed in transfected cells; host or cells: CHO-K1 (CHO-K1/hOx2)
T1 sequence (O43614 1-444): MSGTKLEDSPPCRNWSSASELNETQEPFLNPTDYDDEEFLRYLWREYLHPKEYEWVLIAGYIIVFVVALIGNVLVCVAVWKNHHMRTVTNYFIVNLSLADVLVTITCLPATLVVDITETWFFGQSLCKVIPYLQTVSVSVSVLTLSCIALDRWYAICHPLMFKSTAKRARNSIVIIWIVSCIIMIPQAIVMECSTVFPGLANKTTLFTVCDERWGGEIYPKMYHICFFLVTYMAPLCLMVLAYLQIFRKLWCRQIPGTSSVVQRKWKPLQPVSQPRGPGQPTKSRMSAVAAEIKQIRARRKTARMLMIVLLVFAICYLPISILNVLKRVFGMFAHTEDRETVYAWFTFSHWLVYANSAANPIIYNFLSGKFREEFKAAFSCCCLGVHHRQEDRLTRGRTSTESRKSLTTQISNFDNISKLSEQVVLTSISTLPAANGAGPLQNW
In words: Assay B: in vitro testing of OX2R potency, OX2R IP1. The data set is classed as cell-based. The settings on record: Table 4a; 0.5 nM Orexin A. An excerpt: Activation of the orexin receptors expressed in cell lines results in an increase in intracellular IP3 concentration. IP1, a downstream metabolite of IP3, accumulates in cells following receptor activation and is stable in the presence of LiCl. Using Homogeneous Time-Resolved Fluorescence technology with Lumi4-Tb cryptate (commercially available from Cisbio Bioassay) and a suitable fluorescence plate reader. […] Chem. Genomics 2009, 3, 22-32. This technique is used to characterize pharmacological modification of the orexin receptors.
B. In Vitro Testing of OX2R Potency: OX2R IP1
IP1 measurements are performed in CHO-K1 cells stably expressing the full-length human orexin 2 receptor and the aequorin photoprotein. Cells are cultivated in Ham's nutrient mixture F12 medium with 10% fetal calf serum, in a 37° C., 95% humidity and 5% CO2 incubator. The CHO-K1/hOx2 cell mass is expanded to larger cell numbers. The cells are obtained as frozen cells in cryo-vials and stored until use at −150° C. The viability of the cells after thawing is >90%. In preparation for the assay, 24 hours before the assay, the cells are thawed at 37° C. and immediately diluted with cell culture medium. After centrifugation, the cell pellet is re-suspended in medium and then distributed into the assay plates with a density of 5000 cells/25 μL per well. The plates are incubated for one hour at room temperature to reduce edge effects before they are incubated for 24 hours at 37° C./5% CO2. Compounds are prepared by a 8-point serial dilution in DMSO and a final dilution step into assay buffer (HBSS with 20 mM HEPES, 0.1% BSA and 50 mM LiCl, pH 7.4) to ensure a final DMSO concentration of 1% in the assay. On the day of the assay, cells in the plate are washed twice with 60 μL assay buffer (20 μL buffer remained in the wells after washing), followed by adding 5 μL per well of compounds diluted in assay buffer. After 15 minutes of incubation at room temperature 5 μL per well of Orexin A peptide (final concentration: 0.5 nM) dissolved in assay buffer is added to the assay plate. The assay plate is incubated for 60 minutes at 37° C. Then 5 μL per well of Anti-IP1-Cryptate Tb solution and 5 μL per well of IP1-d2 dilution are added to all well of the plate and the plate is incubated for a further 60 minutes light protected at room temperature. The emission at 615 nm and 665 nm (Excitation wavelength: 320 nm) are measured using an EnVision reader (PerkinElmer). The ratio between the emission at 665 nm and 615 is calculated by the reader.
8-point four parametric non-linear curve fitting and determination of IC50 values and Hill slopes is performed using a regular analysis software e.g. AssayExplorer (Accelrys). In order to establish an agonist concentration independent parameter, Kb values are calculated using the following equation: IC50/((2+(A/EC50)^n)^1/n−1) (with A=concentration agonist, EC50=EC50 agonist, n=Hill slope agonist) (see P. Leff, I. G. Dougall, Trends Pharmacol. Sci. 1993, 14(4), 110-112).
Kb values from Assay A (OX1R) and Assay B (OX2R) can then provide a selectivity ratio which is independent of the agonist (Orexin A) concentration.

The nature of data set [1]: Assay D: assessment of log P. The data set is classed as physicochemical. As to the method:
The assay was performed following the description by S. F. Donovan and M. C. Pescatore in J. Chromatogr. A 952 (2002) 47-61.

In the next data set the target is T2, human Orexin 1 receptor (Homo sapiens, UniProt O43613).
T2 construct: CHO-K1 cells stably expressing the full-length human Orexin 1 receptor and the aequorin photoprotein; expressed in transfected cells; host or cells: CHO-K1 (CHO-K1/hOx1)
T2 sequence (O43613 1-425): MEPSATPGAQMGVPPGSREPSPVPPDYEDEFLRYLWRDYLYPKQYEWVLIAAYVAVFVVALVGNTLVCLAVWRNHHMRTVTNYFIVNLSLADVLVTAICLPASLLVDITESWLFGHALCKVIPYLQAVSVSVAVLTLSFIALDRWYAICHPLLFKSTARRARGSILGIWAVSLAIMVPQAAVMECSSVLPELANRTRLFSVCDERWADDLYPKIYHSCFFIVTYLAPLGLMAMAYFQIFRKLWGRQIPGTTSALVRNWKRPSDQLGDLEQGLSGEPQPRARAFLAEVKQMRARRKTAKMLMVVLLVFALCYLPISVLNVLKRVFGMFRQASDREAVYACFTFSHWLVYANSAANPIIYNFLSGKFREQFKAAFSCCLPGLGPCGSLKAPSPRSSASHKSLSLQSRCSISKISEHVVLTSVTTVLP
In words: Assay A: in vitro testing of OX1R potency, OX1R IP1. The data set is classed as cell-based. To be noted: for Kb: Table 4a, 50 nM Orexin A.

The target in a further data set is T3, human MDR1 P-gp (Homo sapiens, UniProt P08183).
T3 construct: expressed in transfected cells; host or cells: MDCK (MDCK-MDR1)
In words: Assay C: efflux in MDCK cells transfected with the human MDR1 gene. The data set is classed as in vitro ADME. The settings on record: MDCK-MDR1 cell monolayers, pH 7.4, 37° C., read-out: MDCK efflux ratio (BA/AB). Here is the method:
C. Assessment of Efflux in Madin-Darby Canine Kidney (MDCK) Cells Transfected with the Human MDR1 Gene
Apparent permeability coefficients (PE) of the compounds across the MDCK-MDR1 cell monolayers are measured (pH 7.4, 37° C.) in apical-to-basal (AB) and basal-to-apical (BA) transport direction. AB permeability (PEAB) represents drug absorption from the blood into the brain and BA permeability (PEBA) drug efflux from the brain back into the blood via both passive permeability as well as active transport mechanisms mediated by efflux and uptake transporters that are expressed on the MDCK-MDR1 cells, predominantly by the overexpressed human MDR1 P-gp. The compounds are assigned to permeability/absorption classes by comparison of the AB permeabilities with the AB permeabilities of reference compounds with known in vitro permeability and oral absorption in the human. Identical or similar permeabilities in both transport directions indicate passive permeation, vectorial permeability points to additional active transport mechanisms. Higher PEBA than PEAB indicates the involvement of active efflux mediated by MDR1 P-gp. Active transport is concentration-dependently saturable.
MDCK-MDR1 cells (1-2×10e5 cells/1 cm2 area) are seeded on filter inserts (Costar transwell polycarbonate or PET filters, 0.4 μm pore size) and cultured (DMEM) for 7 days. Subsequently, the MDR1 expression is boosted by culturing the cells with 5 mM sodium butyrate in full medium for 2 days. Compounds are dissolved in appropriate solvent (like DMSO, 1-20 mM stock solutions). Stock solutions are diluted with HTP-4 buffer (128.13 mM NaCl, 5.36 mM KCl, 1 mM MgSO4, 1.8 mM CaCl2, 4.17 mM NaHCO3, 1.19 mM Na2HPO4×7H2O, 0.41 mM NaH2PO4—H2O, 15 mM HEPES, 20 mM glucose, 0.25% BSA, pH 7.4) to prepare the transport solutions (0.1-300 μM compound, final DMSO<=0.5%). The transport solution (TL) is applied to the apical or basolateral donor side for measuring A-B or B-A permeability (3 filter replicates), respectively. The receiver side contains the same buffer as the donor side. Samples are collected at the start and end of experiment from the donor and at various time intervals for up to 2 hours also from the receiver side for concentration measurement by H PLC-MS/MS or scintillation counting. Sampled receiver volumes are replaced with fresh receiver solution.

What is called chromatographic logP is lipophilicity estimated from chromatographic retention. Read a low chromatographic logP as lower lipophilicity.

T3 sequence (P08183 whole entry): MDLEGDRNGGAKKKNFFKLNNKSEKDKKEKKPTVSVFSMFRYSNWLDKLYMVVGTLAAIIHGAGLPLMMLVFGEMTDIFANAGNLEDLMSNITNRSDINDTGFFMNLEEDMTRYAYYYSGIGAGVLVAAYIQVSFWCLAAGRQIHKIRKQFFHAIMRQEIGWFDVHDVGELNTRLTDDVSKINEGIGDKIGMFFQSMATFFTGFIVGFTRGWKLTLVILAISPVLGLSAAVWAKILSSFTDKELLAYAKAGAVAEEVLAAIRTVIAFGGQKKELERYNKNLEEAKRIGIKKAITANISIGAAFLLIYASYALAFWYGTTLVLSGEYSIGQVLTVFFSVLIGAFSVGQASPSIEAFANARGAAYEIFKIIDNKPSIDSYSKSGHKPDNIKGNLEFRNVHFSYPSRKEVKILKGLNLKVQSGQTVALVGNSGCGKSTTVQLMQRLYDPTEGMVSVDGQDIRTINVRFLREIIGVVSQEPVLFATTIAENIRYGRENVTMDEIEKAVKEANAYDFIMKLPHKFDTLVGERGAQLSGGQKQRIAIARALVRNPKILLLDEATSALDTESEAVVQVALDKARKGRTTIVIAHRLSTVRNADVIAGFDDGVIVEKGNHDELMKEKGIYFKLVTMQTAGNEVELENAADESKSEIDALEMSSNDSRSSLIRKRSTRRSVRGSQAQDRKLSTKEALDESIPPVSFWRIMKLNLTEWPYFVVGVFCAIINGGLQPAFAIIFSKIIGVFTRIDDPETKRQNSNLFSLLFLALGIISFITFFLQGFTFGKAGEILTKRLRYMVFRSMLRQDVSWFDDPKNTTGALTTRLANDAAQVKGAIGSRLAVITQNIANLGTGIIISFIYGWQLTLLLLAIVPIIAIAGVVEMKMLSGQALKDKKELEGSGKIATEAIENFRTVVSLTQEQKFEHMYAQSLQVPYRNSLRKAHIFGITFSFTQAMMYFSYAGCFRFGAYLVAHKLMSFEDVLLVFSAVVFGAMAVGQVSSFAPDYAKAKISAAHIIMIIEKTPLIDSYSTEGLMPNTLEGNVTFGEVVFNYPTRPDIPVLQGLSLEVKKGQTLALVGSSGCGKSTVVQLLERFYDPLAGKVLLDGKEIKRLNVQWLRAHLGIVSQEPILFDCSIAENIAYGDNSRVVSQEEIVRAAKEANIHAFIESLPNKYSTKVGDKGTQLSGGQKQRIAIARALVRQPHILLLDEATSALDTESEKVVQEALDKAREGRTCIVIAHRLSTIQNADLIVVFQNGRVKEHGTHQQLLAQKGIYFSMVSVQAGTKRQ

In the case of `CCN(C(=O)c1ccc(C)cc1-n1nccn1)[C@@H](C)CNc1ncc(C(F)(F)F)cn1` [Example 5], the Kb at human orexin 2 receptor worked out at 21.1 nM; at human Orexin 1 receptor it was 0.012 nM. The molecule further yielded a chromatographic logP in data set [1] of 2 to 4.

For `CC[C@@H](CNc1ccc(C(F)(F)F)cn1)N(CC)C(=O)c1nc(C)ccc1-n1nccn1` [Ex 71 in WO2016/ 034882, reference compound], the values for the Kb at human orexin 2 receptor and at human Orexin 1 receptor were 27.3 nM and 0.03 nM, respectively.

For `CCN(C(=O)c1c(-n2nccn2)ccc(C)c1F)[C@@H](C)CNc1ncc(C(F)(F)F)cn1` [Example 1], the Kb is 21.8 nM on human orexin 2 receptor and 0.041 nM on human Orexin 1 receptor. Further, in data set [1], the chromatographic logP fell in the range of 2 to 4.

`CC[C@@H](CNc1ccc(Cl)cn1)N(C)C(=O)c1cc(C)ccc1-n1nccn1` [Ex 1 in WO2016/ 034882, reference compound]: on human orexin 2 receptor, the Kb was determined as 43.2 nM.

At human orexin 2 receptor, `CCN(C(=O)c1cc(C)ccc1-n1nccn1)[C@@H](C)CN(C)c1ncc(C(F)(F)F)cn1` [Example 3] came in with a Kb of 15.2 nM. In data set [1], this molecule gave a chromatographic logP of 2 to 4. On human MDR1 P-gp, the efflux ratio is less than 3. Besides, on human Orexin 1 receptor, the “OX2R Kb/OX1R Kb” value is reported as 755 and the Kb is 0.02 nM.

In the case of `CCN(C(=O)c1cccc(F)c1-n1nccn1)[C@@H](C)CNc1ccc(F)c(C(F)(F)F)n1` [Example 18], the Kb stood at 16.3 nM on human orexin 2 receptor and 0.078 nM at human Orexin 1 receptor. The same molecule yielded a chromatographic logP in data set [1] of 2 to 4.

On to `CCN(C(=O)c1nc(C)sc1-c1ccc(F)cc1)[C@@H](C)CNc1ncc(C(F)(F)F)cn1` [Example 8], for which the results for the Kb at human orexin 2 receptor and on human Orexin 1 receptor were 7.92 nM and 0.022 nM, respectively. The chromatographic logP in data set [1] fell in the range of 2 to 4. The efflux ratio at human MDR1 P-gp is less than 3.

For `CCN(C(=O)c1nccc(C(F)(F)F)c1-c1ccn(C)n1)[C@@H](C)COc1ccc(C(F)(F)F)cn1` [Example 19], the Kb at human orexin 2 receptor was 26.2 nM; at human Orexin 1 receptor, 0.114 nM. The chromatographic logP in data set [1] fell in the range of 2 to 4. At human MDR1 P-gp, the efflux ratio was less than 3.

In turn, `CCN(C(=O)c1cc(C)ccc1-n1nccn1)[C@@H](C)CN(C)c1ccc(Cl)cn1` [Example 9] came in with a Kb on human orexin 2 receptor of 4.79 nM. In addition, at human Orexin 1 receptor, the “OX2R Kb/OX1R Kb” value is on record as 909 and the Kb was 0.0053 nM.

In turn, `CC[C@@H](CNc1ncc(C(F)(F)F)cn1)N(CC)C(=O)c1nc(C)ccc1-n1nccn1` [Ex 73 in WO2016/ 034882, reference compound] came in with a Kb at human orexin 2 receptor of 148 nM.

For the molecule `CCN(C(=O)c1cccc(F)c1-c1ncccn1)[C@@H](C)CNc1ccc(C(F)(F)F)cn1` [Example 11], the Kb on human orexin 2 receptor is 3.15 nM; on human Orexin 1 receptor it was 0.015 nM. In data set [1], this molecule had a chromatographic logP of 2 to 4.

In turn, `CC[C@@H](CNc1ncc(C(F)(F)F)cn1)N(C)C(=O)c1c(F)cccc1-n1nccn1` [Ex 91 in WO2016/ 034882, reference compound] yielded a Kb at human Orexin 1 receptor of 3.96 nM.

On human orexin 2 receptor, `CC[C@@H](CNc1ccc(C(F)(F)F)cn1)N(C)C(=O)c1cc(Cl)ccc1-n1nccn1` [Ex 42 in WO2016/ 034882, reference compound] yielded a Kb of 36.2 nM.

Take `CC[C@@H](CNc1ncc(C(F)(F)F)cn1)N(C)C(=O)c1nc(C)ccc1-c1ncccn1` [Ex 84 in WO2016/ 034882, reference compound]: at human Orexin 1 receptor, the Kb is 2.33 nM.

For the molecule `CCN(C(=O)c1cccc(F)c1-n1nccn1)[C@@H](C)CNc1ccc(Cl)cn1` [Example 17], the Kb on human orexin 2 receptor came to 11.4 nM; on human Orexin 1 receptor it was 0.043 nM.

As to `CCN(C(=O)c1cccc(F)c1-c1ncccn1)[C@@H](C)CNc1ccc(F)c(C(F)(F)F)n1` [Example 12], the Kb on human orexin 2 receptor came out at 4.15 nM; at human Orexin 1 receptor, 0.019 nM. The molecule also displayed a chromatographic logP in data set [1] of 2 to 4.

Take `CCN(C(=O)c1cc(C)ccc1-n1nccn1)[C@@H](C)CNc1ccc(Cl)cn1` [Example 10]: the Kb at human orexin 2 receptor stood at 5.57 nM; at human Orexin 1 receptor it was 0.014 nM.

At human orexin 2 receptor, `CC[C@@H](CNc1ncc(C(F)(F)F)cn1)N(C)C(=O)c1cc(Cl)ccc1-n1nccn1` [Ex 39 in WO2016/ 034882, reference compound] registered a Kb of 81.5 nM.

As to `CCN(C(=O)c1ccc(C)c(C)c1-n1nccn1)[C@@H](C)CNc1ccc(Cl)cn1` [Example 14], the figures for the Kb on human orexin 2 receptor and at human Orexin 1 receptor were 22.9 nM and 0.023 nM, respectively. For the same molecule, the efflux ratio on human MDR1 P-gp is less than 3.

With `CCN(C(=O)c1cc(F)ccc1-c1ncccn1)[C@@H](C)CNc1ncc(C(F)(F)F)cc1F` [Example 13], the Kb came to 5.16 nM on human orexin 2 receptor and 0.012 nM on human Orexin 1 receptor. In data set [1], the chromatographic logP lay in the range of 2 to 4.
